The values below come from patent publication US20020193564A1, “Oligomeric chaperone proteins” (priority 1999, published 2002).

Test [1] has as its system AI90 (ΔgroEL::kan^R) [pBADEL] E. coli strain. Put plainly: Plating ability of AI90 on GroEL depletion at 37° C. The test is classed as cell-based. The protocol: AI90 (ΔgroEL::kan^R) [pBAD-EL] cells were transformed with the pJC vector series. Transformants were selected at 37° C. on LB supplemented with 50 μg.ml^−1 of kanamycin, 120 μg.mL^−1 of ampicillin, 25 μg.mL^−1 of chloramphenicol and 0.2% L(+)arabinose. Depletion of GroEL protein was analysed at 37° C. by plating the same quantity of AI90 [PBAD-EL+pJC vectors] cells on LB plates containing 1% D(+)glucose or various amount of arabinose.
Each experiment was performed in triplicate. Plasmids carrying no groE genes or encoding the GroE proteins were used as negative or positive controls, respectively.

The target of test [2] is T1, heat- and dithiothreitol-denatured mtMDH (Sus scrofa, UniProt P00346).
T1 construct: Boehringer-Mannheim); purchased Boehringer-Mannheim; host or cells: pig heart
T1 sequence (P00346 25-338): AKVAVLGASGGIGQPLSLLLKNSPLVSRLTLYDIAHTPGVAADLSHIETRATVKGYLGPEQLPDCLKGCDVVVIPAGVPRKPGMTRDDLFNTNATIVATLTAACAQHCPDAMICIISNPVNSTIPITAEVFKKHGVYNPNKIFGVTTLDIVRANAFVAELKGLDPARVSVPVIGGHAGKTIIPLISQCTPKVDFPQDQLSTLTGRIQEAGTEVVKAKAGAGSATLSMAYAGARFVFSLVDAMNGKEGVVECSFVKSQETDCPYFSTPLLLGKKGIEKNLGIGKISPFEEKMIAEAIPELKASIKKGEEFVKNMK
Put plainly: In vitro refolding of denatured mtMDH. The test is classed as biochemical, pig. The following applies: 25° C., chaperone alone, FIG. 7b. The protocol:
In vitro Refolding Experiments.
Refolding assays of pig heart mitochondrial malate dehydrogenase (mtMDH; Boehringer-Mannheim) and aggregation protection were carried out essentially as described (Peres Ben-Zvi, A. P., Chatellier, J., Fersht, A. R. & Goloubinoff, P. (1998) Proc. Natl. Acad. Sci. U.S.A. 95, 15275-15280). The concentrations of MC7 used were between 8-16 μM (reporter to protomer).

For the substance “GroEL(1-548): key molecular chaperone in Escherichia coli, 14 subunits of 57.5 kD in two seven membered rings”, the “Plating ability, 0.00 % L(+)arabinose” value in test [1] (0.00% arabinose) is “+++ (growth identical to that in presence of 0.2% L(+)arabinose (100%), in terms of both number and size)”. Besides, the “Plating ability, 0.01 % L(+)arabinose” value in test [1] (0.01% arabinose) was “+++ (growth identical to that in presence of 0.2% L(+)arabinose (100%), in terms of both number and size)”. In addition, in test [1] (0.10% arabinose), the “Plating ability, 0.10 % L(+)arabinose” value is “+++ (growth identical to that in presence of 0.2% L(+)arabinose (100%), in terms of both number and size)”. For the same substance, in test [1] (0.15% arabinose), the “Plating ability, 0.15 % L(+)arabinose” value was “+++ (growth identical to that in presence of 0.2% L(+)arabinose (100%), in terms of both number and size)”. For the same substance, the “rate of refolding denatured mtMDH” value in test [2] amounted to 0.04 nM/min.
